Some test systems named below: DU-145 prostate; HL-60(TB) leukemia; IGROV1 ovarian; MDA-MB-435; NCI-H23 lung; OVCAR-4 ovarian; PC-3 prostate; SF-268 CNS; SF-539 CNS; SK-MEL-2 melanoma.
Assay in all cases: NCI-60 cell line screen, 48 h

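Results reflect a 48-hour exposure of cells in 96-well plates to compound at five concentrations. GI50 = concentration required for 50% inhibition of growth. TGI denotes the concentration required for complete inhibition of growth.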

For the compound `OCc1ncc(-c2ccccc2)s1`, the GI50 in the assay on DU-145 prostate, in the assay with HL-60(TB) leukemia, with IGROV1 ovarian, in the assay with MDA-MB-435, with NCI-H23 lung and with OVCAR-4 ovarian was greater than 100 µM throughout. Also, the GI50 with PC-3 prostate, in the assay on SF-268 CNS, in the assay on SF-539 CNS and with SK-MEL-2 melanoma was greater than 100 µM in each case. Also, the TGI in the assay with DU-145 prostate, in the assay with HL-60(TB) leukemia, in the assay on IGROV1 ovarian, with MDA-MB-435, in the assay with NCI-H23 lung and in the assay with OVCAR-4 ovarian was greater than 100 µM throughout. The TGI in the assay on PC-3 prostate, with SF-268 CNS, with SF-539 CNS and in the assay on SK-MEL-2 melanoma was greater than 100 µM each time.

Take `CCOC(=O)Nc1ccc(C(=O)/C=C/c2ccccc2)cc1`: the GI50 was 22.8 µM with DU-145 prostate; 31.4 µM in the assay on HL-60(TB) leukemia; 19.3 µM in the assay on IGROV1 ovarian; 5.13 µM in the assay on MDA-MB-435; 23.7 µM in the assay on NCI-H23 lung; 43.8 µM in the assay on OVCAR-4 ovarian. The GI50 with PC-3 prostate was 30.9 µM; in the assay with SF-268 CNS, 23.8 µM; in the assay with SF-539 CNS it was 20.2 µM; in the assay with SK-MEL-2 melanoma, 25.9 µM. For the same compound, the TGI is 85.1 µM in the assay on DU-145 prostate; greater than 100 µM with HL-60(TB) leukemia; greater than 100 µM with IGROV1 ovarian; greater than 100 µM with MDA-MB-435; 61.1 µM in the assay with NCI-H23 lung; greater than 100 µM with OVCAR-4 ovarian. In addition, the TGI with PC-3 prostate is greater than 100 µM; in the assay with SF-268 CNS, 69 µM; in the assay with SF-539 CNS it was 46.3 µM; in the assay on SK-MEL-2 melanoma, 69.7 µM.

On to `CC(=O)Oc1ccccc1C(=O)NCCC[Se]C#N`, for which the GI50 in the assay on DU-145 prostate is 1.72 µM; with HL-60(TB) leukemia, 2.09 µM; in the assay on IGROV1 ovarian, 2.24 µM; with MDA-MB-435 it was 2.19 µM; in the assay with NCI-H23 lung, 2.58 µM; with OVCAR-4 ovarian it was 3.62 µM. The GI50 in the assay on PC-3 prostate is 1.93 µM; with SF-268 CNS, 1.84 µM; in the assay with SF-539 CNS it was 2.04 µM; with SK-MEL-2 melanoma it was 2.55 µM. In addition, the TGI worked out at 3.17 µM in the assay with DU-145 prostate; 5.49 µM in the assay on HL-60(TB) leukemia; 11.2 µM in the assay on IGROV1 ovarian; 5.16 µM in the assay with MDA-MB-435; 7.57 µM in the assay on NCI-H23 lung; 25.7 µM in the assay with OVCAR-4 ovarian. Moreover, the TGI came out at 5.47 µM in the assay on PC-3 prostate, 4.06 µM in the assay on SF-268 CNS, 3.87 µM with SF-539 CNS and 5.64 µM with SK-MEL-2 melanoma.

As to `c1ccc2c(-c3cnn4cc(-c5ccc(N6CCNCC6)cc5)cnc34)ccnc2c1`, the GI50 with DU-145 prostate was 0.739 µM; with HL-60(TB) leukemia, 0.461 µM; in the assay with IGROV1 ovarian, 0.801 µM; in the assay with MDA-MB-435 it was 0.556 µM; with NCI-H23 lung it was 1.48 µM; with OVCAR-4 ovarian, 1.5 µM. For the same compound, the GI50 with PC-3 prostate is 0.316 µM; in the assay on SF-268 CNS, 1.43 µM; in the assay with SF-539 CNS, 1.31 µM; with SK-MEL-2 melanoma, 1.57 µM. In addition, the TGI in the assay with DU-145 prostate is 2.06 µM; with HL-60(TB) leukemia, 0.969 µM; with IGROV1 ovarian, 2.23 µM; with MDA-MB-435, 1.91 µM; in the assay with NCI-H23 lung, 3.05 µM; with OVCAR-4 ovarian, 3.43 µM. Also, the TGI with PC-3 prostate was 1.52 µM; with SF-268 CNS it was 2.8 µM; with SF-539 CNS it was 2.6 µM; in the assay with SK-MEL-2 melanoma it was 2.98 µM.

As to `O=C1Nc2ccc(CN3CCOC3=O)cc2/C1=C/c1cc(CN2CCOCC2)c[nH]1`, the GI50 in the assay on DU-145 prostate is greater than 100 µM; in the assay with HL-60(TB) leukemia, 25.1 µM; in the assay on IGROV1 ovarian, 50.6 µM; with MDA-MB-435, 18.7 µM; in the assay with NCI-H23 lung, 32.5 µM; in the assay on OVCAR-4 ovarian, 26.6 µM. In addition, the GI50 with PC-3 prostate was 36.9 µM; with SF-268 CNS it was greater than 86.5 µM; in the assay with SF-539 CNS it was 53.9 µM; in the assay on SK-MEL-2 melanoma, 39.2 µM. Moreover, the TGI was greater than 100 µM with DU-145 prostate; greater than 80.7 µM in the assay with HL-60(TB) leukemia; greater than 100 µM in the assay with IGROV1 ovarian; greater than 100 µM in the assay on MDA-MB-435; greater than 100 µM in the assay on NCI-H23 lung; greater than 100 µM in the assay on OVCAR-4 ovarian. Besides, the TGI in the assay with PC-3 prostate, with SF-268 CNS, with SF-539 CNS and in the assay with SK-MEL-2 melanoma was greater than 100 µM throughout.

In the case of `CNC(=O)/C(=C/c1ccc(OC)cc1)c1cc(OC)c(OC)c(OC)c1`, the TGI with DU-145 prostate was greater than 43 µM; in the assay with HL-60(TB) leukemia, 8.01 µM; in the assay with IGROV1 ovarian, greater than 100 µM; with MDA-MB-435 it was 2.42 µM; in the assay with NCI-H23 lung, 32.6 µM; in the assay with OVCAR-4 ovarian, 99.7 µM. In addition, the TGI in the assay with PC-3 prostate was greater than 100 µM; with SF-268 CNS it was greater than 84.7 µM; in the assay on SF-539 CNS, 3.58 µM; in the assay with SK-MEL-2 melanoma, greater than 100 µM.

As for `N=C1N=C(N)S/C1=C\c1ccc2ncccc2c1`, the GI50 in the assay with DU-145 prostate, in the assay with HL-60(TB) leukemia, in the assay on IGROV1 ovarian, in the assay on MDA-MB-435, with NCI-H23 lung and with OVCAR-4 ovarian was greater than 25 µM throughout. The GI50 in the assay with PC-3 prostate, in the assay with SF-268 CNS, with SF-539 CNS and in the assay on SK-MEL-2 melanoma was greater than 25 µM in each case. Besides, the TGI in the assay on DU-145 prostate, in the assay on HL-60(TB) leukemia, with IGROV1 ovarian, with MDA-MB-435, with NCI-H23 lung and in the assay on OVCAR-4 ovarian was greater than 25 µM throughout. Also, the TGI with PC-3 prostate, in the assay on SF-268 CNS, with SF-539 CNS and in the assay on SK-MEL-2 melanoma was greater than 25 µM throughout.

Consider `C/C(=C1/N=C(c2ccccc2)OC1=O)c1ccccc1`, for which the TGI with DU-145 prostate, in the assay with HL-60(TB) leukemia, in the assay with IGROV1 ovarian, with MDA-MB-435, in the assay with NCI-H23 lung and with OVCAR-4 ovarian was greater than 100 µM in each case. For the same compound, the TGI with PC-3 prostate, in the assay with SF-268 CNS, in the assay on SF-539 CNS and in the assay with SK-MEL-2 melanoma was greater than 100 µM throughout.

Source of the values: PubChem BioAssay (NCI).
